US10160729B2, “Hsp70 modulators and methods for making and using the same” (Memorial Sloan Kettering Cancer Center, priority 2014, dated 2018)
pEC50: −log10 of the molar value.

The compounds below were run on MOLM-13 cells (assay: Caspase cleavage assay (Caspase3, 7 activation)). Conditions: Homo sapiens, 16 h treatment, caspase substrate Z-DEVD-R110, read-out: c* Concentration at which 50% of the maximum signal was achieved (caspase activation).
Assay type: cell-based
How it was run: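 Cells (30,000/well, RPMI) treated 16 h with compound or DMSO in triplicate, then given buffer with 10 mM HEPES pH 7.5, 2 mM EDTA, 0.1% CHAPS and 25 μM Z-DEVD-R110. Fluorescence read once signal stabilized; results given as percentage increase in apoptotic cells versus DMSO-treated control.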

Structure (SMILES) | pEC50
CN1CCN(c2ncc(Sc3ccc(C(N)=O)c(Cl)c3)c(OCc3cccc(OC(F)F)c3)n2)CC1 [compound 121, 2-Chloro-4-((4-((3-(difluoromethoxy)benzyl)oxy)-2-(4-methylpiperazin-1-yl)pyrimidin-5-yl)thio)benzamide] | 6.40 to 6.70
CN1CCN(c2ncc(Sc3ccc(C(N)=O)c(Cl)c3)c(OCc3cccc(O)c3)n2)CC1 [compound 122, 2-Chloro-4-((4-((3-hydroxybenzyl)oxy)-2-(4-methylpiperazin-1-yl)pyrimidin-5-yl)thio)benzamide] | 6.40 to 6.70
COc1cccc(COc2nc(N3CCN(C)CC3)ncc2Sc2ccc(C(N)=O)c(Cl)c2)n1 [compound 123, 2-Chloro-4-((4-((6-methoxypyridin-2-yl)methoxy)-2-(4-methylpiperazin-1-yl)pyrimidin-5-yl)thio)benzamide] | 6.40 to 6.70
COc1cc(COc2nc(N3CCN(C)CC3)ncc2Sc2ccc(C(N)=O)c(Cl)c2)ccn1 [compound 124, 2-Chloro-4-((4-((2-methoxypyridin-4-yl)methoxy)-2-(4-methylpiperazin-1-yl)pyrimidin-5-yl)thio)benzamide] | > 6.70
COc1cncc(COc2nc(N3CCN(C)CC3)ncc2Sc2ccc(C(N)=O)c(Cl)c2)c1 [compound 125, 2-Chloro-4-((4-((5-methoxypyridin-3-yl)methoxy)-2-(4-methylpiperazin-1-yl)pyrimidin-5-yl)thio)benzamide] | > 6.70
COc1ccnc(COc2nc(N3CCN(C)CC3)ncc2Sc2ccc(C(N)=O)c(Cl)c2)c1 [compound 126, 2-Chloro-4-((4-((4-methoxypyridin-2-yl)methoxy)-2-(4-methylpiperazin-1-yl)pyrimidin-5-yl)thio)benzamide] | 6.40 to 6.70
CN1CCN(c2ncc(Sc3ccc(C(N)=O)c(Cl)c3)c(OCc3ccc(F)c(O)c3)n2)CC1 [compound 127, 2-Chloro-4-((4-((4-fluoro-3-hydroxybenzyl)oxy)-2-(4-methylpiperazin-1-yl)pyrimidin-5-yl)thio)benzamide] | 6.00 to 6.40
CN1CCN(c2ncc(Sc3ccc(C(N)=O)c(C(F)(F)F)c3)c(OCc3cccc(Cl)c3)n2)CC1 [compound 131, 4-((4-((3-Chlorobenzyl)oxy)-2-(4-methylpiperazin-1-yl)pyrimidin-5-yl)thio)-2-(trifluoromethyl)benzamide] | > 6.70
CN1CCN(c2ncc(Sc3ccc(C(N)=O)c(C(F)(F)F)c3)c(OCc3ccc(F)c(Cl)c3)n2)CC1 [compound 132, 4-((4-((3-Chloro-4-fluorobenzyl)oxy)-2-(4-methylpiperazin-1-yl)pyrimidin-5-yl)thio)-2-(trifluoromethyl)benzamide] | > 6.70
CN1CCN(c2ncc(Sc3ccc(C(N)=O)c(C(F)(F)F)c3)c(OCc3cc(Cl)ccc3F)n2)CC1 [compound 133, 4-((4-((5-Chloro-2-fluorobenzyl)oxy)-2-(4-methylpiperazin-1-yl)pyrimidin-5-yl)thio)-2-(trifluoromethyl)benzamide] | > 6.70
CN1CCN(c2ncc(Sc3ccc(C(N)=O)c(C(F)(F)F)c3)c(OCc3ccc(F)c(Br)c3)n2)CC1 [compound 134, 4-((4-((3-Bromo-4-fluorobenzyl)oxy)-2-(4-methylpiperazin-1-yl)pyrimidin-5-yl)thio)-2-(trifluoromethyl)benzamide] | 6.40 to 6.70
CN1CCN(c2ncc(Sc3ccc(C(N)=O)c(C(F)(F)F)c3)c(OCc3ccc(F)cc3F)n2)CC1 [compound 135, 4-((4-((2,4-Difluorobenzyl)oxy)-2-(4-methylpiperazin-1-yl)pyrimidin-5-yl)thio)-2-(trifluoromethyl)benzamide] | 6.40 to 6.70
COc1cccc(COc2nc(N3CCN(C)CC3)ncc2Sc2ccc(C(N)=O)c(C(F)(F)F)c2)c1 [compound 136, 4-((4-((3-Methoxybenzyl)oxy)-2-(4-methylpiperazin-1-yl)pyrimidin-5-yl)thio)-2-(trifluoromethyl)benzamide] | > 6.70
COc1cc(COc2nc(N3CCN(C)CC3)ncc2Sc2ccc(C(N)=O)c(C(F)(F)F)c2)ccc1F [compound 137, 4-((4-((4-Fluoro-3-methoxybenzyl)oxy)-2-(4-methylpiperazin-1-yl)pyrimidin-5-yl)thio)-2-(trifluoromethyl)benzamide] | > 6.70
COc1ccc(F)c(COc2nc(N3CCN(C)CC3)ncc2Sc2ccc(C(N)=O)c(C(F)(F)F)c2)c1 [compound 138, 4-((4-((2-Fluoro-5-methoxybenzyl)oxy)-2-(4-methylpiperazin-1-yl)pyrimidin-5-yl)thio)-2-(trifluoromethyl)benzamide] | > 6.70
CN1CCN(c2ncc(Sc3ccc(C(N)=O)c(C(F)(F)F)c3)c(OCc3cccc(N(C)C)c3)n2)CC1 [compound 139, 4-((4-((3-(Dimethylamino)benzyl)oxy)-2-(4-methylpiperazin-1-yl)pyrimidin-5-yl)thio)-2-(trifluoromethyl)benzamide] | > 6.70
CN1CCN(c2ncc(Sc3ccc(C(N)=O)c(C(F)(F)F)c3)c(NCc3cccc(Cl)c3)n2)CC1 [compound 141, 4-((4-((3-Chlorobenzyl)amino)-2-(4-methylpiperazin-1-yl)pyrimidin-5-yl)thio)-2-(trifluoromethyl)benzamide] | 5.92 to 6.00

Results, then the compound that gave them:

pEC50 | Structure (SMILES)
> 6.70 | COc1cc(COc2nc(N3CCN(C)CC3)ncc2Sc2ccc(N)nc2)ccc1F [compound 151, 5-((4-((4-Fluoro-3-methoxybenzyl)oxy)-2-(4-methylpiperazin-1-yl)pyrimidin-5-yl)thio)pyridin-2-amine]
6.40 to 6.70 | CN1CCN(c2ncc(Sc3ccc(N)nc3)c(OCc3cccc(C#N)c3)n2)CC1 [compound 152, 3-(((5-((6-Aminopyridin-3-yl)thio)-2-(4-methylpiperazin-1-yl)pyrimidin-4-yl)oxy)methyl)benzonitrile]
> 6.70 | CN1CCN(c2ncc(Sc3ccc(N)nc3)c(OCc3cccc(N(C)C)c3)n2)CC1 [compound 153, 5-((4-((3-(Dimethylamino)benzyl)oxy)-2-(4-methylpiperazin-1-yl)pyrimidin-5-yl)thio)pyridin-2-amine]
> 6.70 | CN1CCN(c2ncc(Sc3ccc(N)nc3)c(OCc3ccc(F)c(Cl)c3)n2)CC1 [compound 154, 5-((4-((3-Chloro-4-fluorobenzyl)oxy)-2-(4-methylpiperazin-1-yl)pyrimidin-5-yl)thio)pyridin-2-amine]
> 6.70 | CN1CCN(c2ncc(Sc3ccc(N)nc3)c(OCc3ccc(F)c(Br)c3)n2)CC1 [compound 155, 5-((4-((3-Bromo-4-fluorobenzyl)oxy)-2-(4-methylpiperazin-1-yl)pyrimidin-5-yl)thio)pyridin-2-amine]
6.40 to 6.70 | CN1CCN(c2ncc(Sc3ccc(N)nc3)c(OCc3ccc(F)c(C(F)(F)F)c3)n2)CC1 [compound 156, 5-((4-((4-Fluoro-3-(trifluoromethyl)benzyl)oxy)-2-(4-methylpiperazin-1-yl)pyrimidin-5-yl)thio)pyridin-2-amine]
> 6.70 | COc1ccc(F)c(COc2nc(N3CCN(C)CC3)ncc2Sc2ccc(N)nc2)c1 [compound 157, 5-((4-((2-Fluoro-5-methoxybenzyl)oxy)-2-(4-methylpiperazin-1-yl)pyrimidin-5-yl)thio)pyridin-2-amine]
> 6.70 | COc1c(F)ccc(COc2nc(N3CCN(C)CC3)ncc2Sc2ccc(N)nc2)c1F [compound 158, 5-((4-((2,4-Difluoro-3-methoxybenzyl)oxy)-2-(4-methylpiperazin-1-yl)pyrimidin-5-yl)thio)pyridin-2-amine]
≤ 5.92 | NC(=O)c1ccc(Sc2cnc(N3CCNCC3)nc2OCc2ccccc2)cc1 [compound 167, 4-((4-(Benzyloxy)-2-(piperazin-1-yl)pyrimidin-5-yl)thio)benzamide]
≤ 5.92 | CC(=O)N1CCN(c2ncc(Sc3ccc(C(N)=O)cc3)c(OCc3ccccc3)n2)CC1 [compound 168, 4-((2-(4-Acetylpiperazin-1-yl)-4-(benzyloxy)pyrimidin-5-yl)thio)benzamide]
≤ 5.92 | C[C@@H]1CN(C)[C@@H](C)CN1c1ncc(Sc2ccc(C(N)=O)cc2)c(OCc2ccccc2)n1 [compound 182, 4-((4-(Benzyloxy)-2-((2R,5S)-2,4,5-trimethylpiperazin-1-yl)pyrimidin-5-yl)thio)benzamide]
5.92 to 6.00 | CN(C)c1cccc(COc2nc(-c3cc[nH]c3)ncc2Sc2ccc(C(N)=O)cc2)c1 [compound 187, 4-((4-((3-(Dimethylamino)benzyl)oxy)-2-(1H-pyrrol-3-yl)pyrimidin-5-yl)thio)benzamide]
≤ 5.92 | COc1cccc(COc2nc(N3CCN(C)C[C@H]3C)ncc2Sc2ccc(C(N)=O)cc2)c1 [compound 193, (R)-4-((2-(2,4-dimethylpiperazin-1-yl)-4-((3-methoxybenzyl)oxy)pyrimidin-5-yl)thio)benzamide]
≤ 5.92 | COc1cccc(COc2nc(N3CC4CC3CN4C)ncc2Sc2ccc(C(N)=O)cc2)c1 (centres unmarked) [compound 195]
> 6.70 | C#CCN1CCN(c2ncc(Sc3ccc(C(N)=O)cc3)c(OCc3cccc(OC)c3)n2)CC1 [compound 198, 4-((4-((3-Methoxybenzyl)oxy)-2-(4-(prop-2-yn-1-yl)piperazin-1-yl)pyrimidin-5-yl)thio)benzamide]
6.00 to 6.40 | CN(C)[C@@H]1CCN(c2ncc(Sc3ccc(C(N)=O)cc3)c(OCc3cccc(OC(F)(F)F)c3)n2)C1 [compound 205, (R)-4-((2-(3-(Dimethylamino)pyrrolidin-1-yl)-4-((3-(trifluoromethoxy)benzyl)oxy)pyrimidin-5-yl)thio)benzamide]
6.00 to 6.40 | CN(C)[C@@H]1CCN(c2ncc(Sc3ccc(C(N)=O)cc3)c(OCc3ccnc(N)c3)n2)C1 [compound 206, (R)-4-((4-((2-Aminopyridin-4-yl)methoxy)-2-(3-(dimethylamino)pyrrolidin-1-yl)pyrimidin-5-yl)thio)benzamide]
6.00 to 6.40 | CN(C)[C@@H]1CCN(c2ncc(Sc3ccc(C(N)=O)cc3)c(OCc3ccccc3)n2)C1 [compound 207, (R)-4-((4-(Benzyloxy)-2-(3-(dimethylamino)pyrrolidin-1-yl)pyrimidin-5-yl)thio)benzamide]
